# Measurements reported in patent publication US10696615B2, “Prenylated hydroxystilbenes” (The University of Sydney, priority 2011, dated 2020).
# Columns and labels:
# [1] = test system: NCI-H322M; test: NCI in vitro cancer screen, Non-Small Cell Lung Cancer; type: cell-based, human; details: for GI50 / LC50 (50% lethal concentration): Homo sapiens
# [2] = test system: CCRF-CEM; test: NCI in vitro cancer screen, Leukemia; type: cell-based, human; details: for GI50 / CC50: Homo sapiens; for CC50: read-out: LC50 (the source's name)
# [3] = test system: SK-MEL-2; test: NCI in vitro cancer screen, Melanoma; type: cell-based, human; details: SK-MEL-2; for GI50 / LC50: Homo sapiens
# [4] = test system: MCF7; test: NCI in vitro cancer screen, Breast Cancer; type: cell-based, human; details: MCF7; for GI50 / CC50: Homo sapiens; for CC50: read-out: LC50 (the source's name)
# [5] = test system: NCI-H522; test: NCI in vitro cancer screen, Non-Small Cell Lung Cancer; type: cell-based, human; details: NCI-H522; for GI50 / CC50: Homo sapiens; for CC50: read-out: LC50 (the source's name)
# [6] = test system: A498; test: NCI in vitro cancer screen, Renal Cancer; type: cell-based, human; details: A498; for GI50 / CC50: Homo sapiens; for CC50: read-out: LC50 (the source's name)
# [7] = test system: HS 578T; test: NCI in vitro cancer screen, Breast Cancer; type: cell-based, human; details: for GI50 / CC50: Homo sapiens; for CC50: read-out: LC50 (the source's name)
# [8] = test system: HCT-15; test: NCI in vitro cancer screen, Colon Cancer; type: cell-based, human; details: HCT-15; for GI50 / CC50: Homo sapiens; for CC50: read-out: LC50 (the source's name)
# [9] = test system: SN12C; test: NCI in vitro cancer screen, Renal Cancer; type: cell-based, human; details: for GI50 / CC50: Homo sapiens; for CC50: read-out: LC50 (the source's name)
# [10] = test system: SF-539; test: NCI in vitro cancer screen, CNS Cancer; type: cell-based; details: SF-539; for GI50 / CC50: Homo sapiens; for CC50: read-out: LC50 (the source's name)
# [11] = test system: A549/ATCC; test: NCI in vitro cancer screen, Non-Small Cell Lung Cancer; type: cell-based, human; details: for GI50 / CC50: Homo sapiens; for CC50: read-out: LC50 (the source's name)
# [12] = test system: SNB-75; test: NCI in vitro cancer screen, CNS Cancer; type: cell-based, human; details: SNB-75; for GI50 / CC50: Homo sapiens; for CC50: read-out: LC50 (the source's name)
# [13] = test system: KM12; test: NCI in vitro cancer screen, Colon Cancer; type: cell-based, human; details: KM12; for GI50 / CC50: Homo sapiens; for CC50: read-out: LC50 (the source's name)
# [14] = test system: SW-620; test: NCI in vitro cancer screen, Colon Cancer; type: cell-based, human; details: SW-620; for GI50 / CC50: Homo sapiens; for CC50: read-out: LC50 (the source's name)
# [15] = test system: IGROV1; test: NCI in vitro cancer screen, Ovarian Cancer; type: cell-based, human; details: IGROV1; for GI50 / CC50: Homo sapiens, IGROV-1; for CC50: read-out: LC50 (the source's name)
# [16] = test system: PC-3; test: NCI in vitro cancer screen, Prostate Cancer; type: cell-based, human; details: PC-3; for GI50 / CC50: Homo sapiens; for CC50: read-out: LC50 (the source's name)
# [17] = test system: MDA-MB-435; test: NCI in vitro cancer screen, Melanoma; type: cell-based, human; details: MDA-MB-435; for GI50 / CC50: Homo sapiens; for CC50: read-out: LC50 (the source's name)
# [18] = test system: ACHN; test: NCI in vitro cancer screen, Renal Cancer; type: cell-based, human; details: for GI50 / CC50: Homo sapiens; for CC50: read-out: LC50 (the source's name)
# [19] = test system: TK-10; test: NCI in vitro cancer screen, Renal Cancer; type: cell-based, human; details: TK-10; for GI50 / LC50: Homo sapiens
# [20] = test system: U251; test: NCI in vitro cancer screen, CNS Cancer; type: cell-based, human; details: U251; for GI50 / CC50: Homo sapiens, U-251; for CC50: read-out: LC50 (the source's name)
# [21] = test system: EKVX; test: NCI in vitro cancer screen, Non-Small Cell Lung Cancer; type: cell-based, human; details: for GI50 / CC50: Homo sapiens; for CC50: read-out: LC50 (the source's name)
# [22] = test system: SF-268; test: NCI in vitro cancer screen, CNS Cancer; type: cell-based, human; details: SF-268; for GI50 / CC50: Homo sapiens; for CC50: read-out: LC50 (the source's name)
# [23] = test system: OVCAR-3; test: NCI in vitro cancer screen, Ovarian Cancer; type: cell-based, human; details: OVCAR-3; for GI50 / CC50: Homo sapiens; for CC50: read-out: LC50 (the source's name)
# [24] = test system: HCC-2998; test: NCI in vitro cancer screen, Colon Cancer; type: cell-based, human; details: HCC-2998; for GI50 / CC50: Homo sapiens; for CC50: read-out: LC50 (the source's name)
# [25] = test system: MDA-MB-231 (MDA-MB-231/ATCC); test: NCI in vitro cancer screen, Breast Cancer; type: cell-based, human; details: MDA-MB-231; for GI50 / CC50: Homo sapiens; for CC50: read-out: LC50 (the source's name)
# [26] = test system: NCI-H226; test: NCI in vitro cancer screen, Non-Small Cell Lung Cancer; type: cell-based, human; details: NCI-H226; for GI50 / LC50 (50% lethal concentration): Homo sapiens
# [27] = test system: MALME-3M; test: NCI in vitro cancer screen, Melanoma; type: cell-based, human; details: for GI50 / CC50: Homo sapiens, Malme-3M; for CC50: read-out: LC50 (the source's name); for TGI: MALME-3M
# [28] = test system: CAKI-1; test: NCI in vitro cancer screen, Renal Cancer; type: cell-based, human; details: CAKI-1; for GI50 / CC50: Homo sapiens; for CC50: read-out: LC50 (the source's name)
compound,measurement,setting,value
"COc1cc(/C=C/c2cc(O)cc(OCC=C(C)C)c2)ccc1O [USYDS2, (E)-3-(3-methyl-2-butenyloxy)-4′,5-dihydroxy-3′-methoxystilbene]",TGI,[1],22.7 µM
same,GI50,[1],9.64 µM
same,LC50 (50% lethal concentration),[1],52.3 µM
same,TGI,[2],>100 µM
same,GI50,[2],5.06 µM
same,CC50,[2],> 100 µM
same,GI50,[3],1.25 µM
same,LC50,[3],41.6 µM
same,TGI,[3],9.59 µM
same,GI50,[4],1.24 µM
same,CC50,[4],41 µM
same,TGI,[4],15.0 µM
same,GI50,[5],1.14 µM
same,CC50,[5],14.7 µM
same,TGI,[5],3.57 µM
same,TGI,[6],23.8 µM
same,GI50,[6],10.3 µM
same,CC50,[6],55.2 µM
same,TGI,[7],10.3 µM
same,GI50,[7],1.28 µM
same,CC50,[7],> 100 µM
same,TGI,[8],17.8 µM
same,GI50,[8],0.76 µM
same,CC50,[8],97.3 µM
same,TGI,[9],18.8 µM
same,GI50,[9],4.02 µM
same,CC50,[9],60.2 µM
same,GI50,[10],1.92 µM
same,CC50,[10],50.2 µM
same,TGI,[10],13.8 µM
same,TGI,[11],13.0 µM
same,GI50,[11],3.28 µM
same,CC50,[11],42.1 µM
same,GI50,[12],2.14 µM
same,CC50,[12],55.8 µM
same,TGI,[12],10.3 µM
same,GI50,[13],2.09 µM
same,CC50,[13],45 µM
same,TGI,[13],11.7 µM
same,GI50,[14],0.53 µM
same,CC50,[14],40.7 µM
same,TGI,[14],14.0 µM
same,GI50,[15],5.84 µM
same,CC50,[15],> 100 µM
same,TGI,[15],46.7 µM
same,GI50,[16],3.84 µM
same,CC50,[16],65.8 µM
same,TGI,[16],18.7 µM
same,GI50,[17],0.34 µM
same,CC50,[17],41.3 µM
same,TGI,[17],11.0 µM
same,TGI,[18],17.5 µM
same,GI50,[18],3.76 µM
same,CC50,[18],52.1 µM
same,GI50,[19],4.69 µM
same,LC50,[19],40.1 µM
same,TGI,[19],14.3 µM
same,GI50,[20],2.96 µM
same,CC50,[20],41 µM
same,TGI,[20],14.7 µM
same,TGI,[21],25.2 µM
same,GI50,[21],9.04 µM
same,CC50,[21],66.4 µM
same,GI50,[22],4.5 µM
same,CC50,[22],51.6 µM
same,TGI,[22],19.2 µM
same,GI50,[23],3.02 µM
same,CC50,[23],36.1 µM
same,TGI,[23],10.7 µM
same,TGI,[24],17.3 µM
same,GI50,[24],4.61 µM
same,CC50,[24],46.4 µM
same,GI50,[25],0.25 µM
same,CC50,[25],15.7 µM
same,TGI,[25],2.10 µM
same,GI50,[26],5.43 µM
same,LC50 (50% lethal concentration),[26],46.4 µM
same,TGI,[26],19.1 µM
same,GI50,[27],1.88 µM
same,CC50,[27],94.9 µM
same,TGI,[27],26.2 µM
same,TGI,[28],>100 µM
same,GI50,[28],6.13 µM
same,CC50,[28],> 100 µM
"CC(C)=CCOc1cc(O)cc(/C=C/c2ccc(O)c(O)c2)c1 [USYDS4, (E)-3-(3-methyl-2-butenyloxy)-3′,4′,5-trihydroxystilbene]",TGI,[1],54.7 µM
same,GI50,[1],12.8 µM
same,LC50 (50% lethal concentration),[1],> 100 µM
same,TGI,[2],>100 µM
same,GI50,[2],3.5 µM
same,CC50,[2],> 100 µM
same,GI50,[3],2.18 µM
same,LC50,[3],31 µM
same,TGI,[3],6.57 µM
same,GI50,[4],2.57 µM
same,CC50,[4],51.1 µM
same,TGI,[4],18.2 µM
same,GI50,[5],1.07 µM
same,CC50,[5],6.04 µM
same,TGI,[5],2.54 µM
same,TGI,[6],23.5 µM
same,GI50,[6],9.07 µM
same,CC50,[6],55.2 µM
same,TGI,[7],7.11 µM
same,GI50,[7],1 µM
same,CC50,[7],> 100 µM
same,TGI,[8],34.9 µM
same,GI50,[8],1.77 µM
same,CC50,[8],> 100 µM
same,TGI,[9],20.0 µM
same,GI50,[9],3.94 µM
same,CC50,[9],74.1 µM
same,GI50,[10],3.45 µM
same,CC50,[10],97.5 µM
same,TGI,[10],22.3 µM
same,TGI,[11],25.6 µM
same,GI50,[11],4.74 µM
same,CC50,[11],> 100 µM
same,GI50,[12],1.77 µM
same,CC50,[12],48.3 µM
same,TGI,[12],9.11 µM
same,GI50,[13],3.27 µM
same,CC50,[13],46.5 µM
same,TGI,[13],14.2 µM
same,GI50,[14],2.97 µM
same,CC50,[14],46.5 µM
same,TGI,[14],16.6 µM
same,GI50,[15],3.74 µM
same,CC50,[15],> 100 µM
same,TGI,[15],44.8 µM
same,GI50,[16],4.47 µM
same,CC50,[16],87.9 µM
same,TGI,[16],22.0 µM
same,GI50,[17],0.36 µM
same,CC50,[17],> 100 µM
same,TGI,[17],21.6 µM
same,TGI,[18],>100 µM
same,GI50,[18],4.57 µM
same,CC50,[18],> 100 µM
same,GI50,[19],3.87 µM
same,LC50,[19],> 100 µM
same,TGI,[19],9.66 µM
same,GI50,[20],3.67 µM
same,CC50,[20],45.5 µM
same,TGI,[20],15.6 µM
same,TGI,[21],59.6 µM
same,GI50,[21],9.55 µM
same,CC50,[21],> 100 µM
same,GI50,[22],3.89 µM
same,CC50,[22],> 100 µM
same,TGI,[22],23.2 µM
same,GI50,[23],3.98 µM
same,CC50,[23],44.9 µM
same,TGI,[23],15.0 µM
same,TGI,[24],19.0 µM
same,GI50,[24],5.16 µM
same,CC50,[24],53.4 µM
same,GI50,[25],1.04 µM
same,CC50,[25],> 100 µM
same,TGI,[25],18.4 µM
same,GI50,[26],5.14 µM
same,LC50 (50% lethal concentration),[26],78 µM
same,TGI,[26],23.1 µM
same,GI50,[27],7.25 µM
same,CC50,[27],> 100 µM
same,TGI,[27],30.6 µM
same,TGI,[28],>100 µM
same,GI50,[28],5.25 µM
same,CC50,[28],> 100 µM
